Reference: US8628771B2, “CA IX-specific inhibitors” (Institute of Virology Slovak Academy of Sciences, priority 2002, dated 2014)
pKi: −log10 of the molar value. Several values for one entry are separate records, joined by “and”; a condition that tells them apart may be missing. Identical values can stand only once. Like-named read-outs stand apart in the source and are kept apart here.

Legend:
bCA IV = molecular target: T1, bCA IV (Bos taurus, UniProt Q95323); assay: CA esterase activity assay, isozyme bCA IV; format: biochemical, bovine; settings: read-out: KI bCA IV
T1 construct: CA IV was isolated from bovine lung microsomes as described by Maren et al; from tissue; host or cells: bovine lung microsomes
T1 sequence (Q95323 19-284): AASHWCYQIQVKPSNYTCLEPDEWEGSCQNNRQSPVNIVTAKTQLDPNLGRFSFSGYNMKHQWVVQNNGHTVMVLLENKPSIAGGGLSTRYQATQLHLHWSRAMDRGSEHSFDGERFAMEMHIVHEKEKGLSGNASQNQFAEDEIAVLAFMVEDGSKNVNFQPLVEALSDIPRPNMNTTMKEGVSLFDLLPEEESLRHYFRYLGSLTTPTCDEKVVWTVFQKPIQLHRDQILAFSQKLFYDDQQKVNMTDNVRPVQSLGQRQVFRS

hCA I = molecular target: T2, hCA I (Homo sapiens, UniProt P00915); assay: CA esterase activity assay, isozyme hCA I; format: biochemical
T2 construct: made in house; host or cells: Escherichia coli BL21 (DE3)
Protocol: (§1) Human CA I and CA II cDNAs were expressed in Escherichia coli strain BL21 (DE3) from the plasmids pACA/hCA I and pACA/hCA II described by Lindskog's group [54].
(§2) Non-enzymatic hydrolysis rates were always subtracted from the observed rates. […] Inhibitor and enzyme solutions were preincubated together for 10 min at room temperature prior to assay, in order to allow for the formation of the E-I complex. The inhibition constant KI was determined as described in references [44, 76].

hCA IX = hCA IX (Homo sapiens, UniProt Q16790); assay: CA CO2 hydrase activity assay, tumor-associated isozyme hCA IX
Protocol: An SX.18MV-R Applied Photophysics stopped-flow instrument has been used for assaying the CA CO2 hydration activity assays [44]. […] Inhibitor and enzyme solutions were preincubated together for 10 min at room temperature prior to assay, in order to allow for the formation of the E-I complex.

hCA II = molecular target: T3, hCA II (Homo sapiens, UniProt P00918); assay: CA esterase activity assay, isozyme hCA II; format: biochemical
T3 construct: made in house; host or cells: Escherichia coli BL21 (DE3)
Protocol: as §1, §2

[1] = Table 1, isolated from bovine lung microsomes, esterase assay method
[2] = Table 2, human (cloned) isozymes, read-out: KI hCA I
[3] = read-out: KI hCA IX, Table 2, catalytic domain of the human, cloned isozyme
[4] = Table 2, from bovine lung microsomes
[5] = Table 2, human (cloned) isozymes, read-out: KI hCA II
[6] = KI against CA IX, text discussion of Tables 1-3
[7] = read-out: KI hCA IX, Table 1, human cloned isozyme, CO2 hydrase assay method
[8] = read-out: KI hCA IX, Table 3, catalytic domain of the human, cloned isozyme, CO2 hydrase assay method
[9] = Table 3, from bovine lung microsomes, esterase assay method
[10] = Table 3, human (cloned) isozymes, esterase assay method, read-out: KI hCA II
[11] = Table 1, human cloned isozymes, esterase assay method, read-out: KI hAC I

T2 sequence (P00915 whole entry): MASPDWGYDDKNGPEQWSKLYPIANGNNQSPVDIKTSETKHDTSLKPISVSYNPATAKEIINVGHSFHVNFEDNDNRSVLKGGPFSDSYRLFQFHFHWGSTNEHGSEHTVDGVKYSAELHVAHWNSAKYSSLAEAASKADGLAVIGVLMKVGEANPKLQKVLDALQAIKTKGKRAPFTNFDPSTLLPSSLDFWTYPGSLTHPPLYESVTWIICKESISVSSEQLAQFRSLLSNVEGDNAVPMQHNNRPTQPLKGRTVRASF

Row | SMILES | pKi (hCA I; [2]) | pKi (hCA IX; [3]) | pKi (hCA II; [5]) | pKi (bCA IV; [1]) | pKi (hCA IX; [7]) | also measured
1 | Nc1ccc(S(=O)(=O)NCc2ccc(S(N)(=O)=O)cc2)cc1 [Compound 18] | – | – | – | 7.14 | – | –
2 | CC(C)c1cc(-c2ccccc2)cc(-c2ccccc2)[n+]1-c1ccc(S(N)(=O)=O)cc1 [Compound 35] | 3.90 | – | 6.36 | – | – | pKi (bCA IV; [4]): 5.68
3 | CCCc1cc(-c2ccccc2)cc(-c2ccccc2)[n+]1-c1ccc(S(N)(=O)=O)cc1 [Compound 34] | 3.85 | – | 6.24 | – | – | pKi (bCA IV; [4]): 5.83
4 | NS(=O)(=O)c1ccc(CO)cc1 [Compound 24] | – | – | – | – | 7.68 | –
5 | Cc1cc(C(C)C)[n+](-c2ccc(S(=O)(=O)Nc3nnc(S(N)(=O)=O)s3)cc2)c(C(C)C)c1 [Compound 73, 1-N-[5-Sulfamoyl-1,3,4-thiadiazol-2-yl-(aminosulfonyl-4-phenyl)]-2,6-di-iso-propyl-4-methylpyridinium perchlorate] | – | – | – | – | – | pKi (hCA I; Table 3, human (cloned) isozymes, esterase assay method, read-out: KI hCA I): 8.15; pKi (hCA I; Table 3, read-out: KI against CA I): 7.92 to 8.15; pKi (hCA IX; [6]): 7.46 to 7.92; pKi (hCA IX; [8]): 7.80; pKi (bCA IV; [9]): 8.33; pKi (hCA II; [10]): 8.81; pKi (hCA II; Tables 1 and 3, read-out: KI against CA II): 8.79 to 9.70
6 | Nc1ccc(S(N)(=O)=O)cc1F [Compound 7] | – | – | – | 6.74 | 6.61 | –
7 | Nc1ccccc1S(N)(=O)=O [Compound 1] | – | – | – | 5.88 | 7.48 | –
8 | NS(=O)(=O)c1ccc(S(=O)(=O)Nc2cccc3c(Cl)c[nH]c23)cc1 [indisulam, reference compound] | – | – | – | – | – | pKi (bCA IV; [4]): 7.19; pKi (bCA IV; [9]): 7.19
9 | CCN[C@H]1CN(CCCOC)S(=O)(=O)c2sc(S(N)(=O)=O)cc21 [BRZ, brinzolamide, reference compound] | – | – | – | 7.35 | – | –
10 | NS(=O)(=O)c1ccc(C(=O)O)cc1 [Compound 26] | – | – | – | 7.07 | 7.59 | –
11 | NS(=O)(=O)c1ccc(CC[n+]2c(-c3ccccc3)cc(-c3ccccc3)cc2-c2ccccc2)cc1 [Compound 68] | 3.57 | 7.02 | 6.38 | – | – | pKi (hCA IX): 6.87 to 7.19
12 | NS(=O)(=O)c1cccc2cccnc12 [Compound 22] | – | – | – | 6.38 | 7.49 | –
13 | NNc1ccc(S(N)(=O)=O)cc1 [Compound 4, 4-hydrazino-benzenesulfonamide] | – | – | – | 5.49 | – | pKi (hCA I; [11]): 4.11
14 | Nc1ccc(S(=O)(=O)Nc2ccccc2S(N)(=O)=O)cc1 [Compound 17] | – | – | – | 6.84 | – | pKi (hCA I; [11]): 6.73
15 | Nc1ccc(S(N)(=O)=O)cc1I [Compound 10] | – | – | – | 6.90 | 6.55 | pKi (hCA I; [11]): 5.22
16 | NCc1ccc(S(N)(=O)=O)cc1 [Compound 5, homosulfanilamide] | – | – | – | – | – | pKi (hCA IX; read-out: KI hCA IX): 6.99
17 | Nc1nccc(Nc2ccc(S(N)(=O)=O)cc2)n1 [Compound 20] | – | – | – | 6.81 | 7.80 | pKi (hCA IX; read-out: KI against CA IX, text discussion of Tables 1-3): 7.49 to 7.80
18 | Nc1ccc(S(=O)(=O)NCCc2ccc(S(N)(=O)=O)cc2)cc1 [Compound 19] | – | – | – | 7.14 | 7.62 | –
19 | Nc1ccc(S(=O)(=O)Nc2ccc(S(N)(=O)=O)cc2)cc1 [Compound 16] | – | – | – | 6.89 | 7.47 | –
20 | CC(C)c1cc(-c2ccccc2)cc(-c2ccccc2)[n+]1CCc1ccc(S(N)(=O)=O)cc1 [Compound 65] | – | 7.11 | 6.46 | – | – | pKi (hCA I; read-out: KI hCA I): 4.03
21 | NS(=O)(=O)c1ccc(CCO)cc1 [Compound 25] | – | – | – | 6.35 | 7.66 | –
22 | CC(C)(C)c1cc(-c2ccccc2)cc(-c2ccccc2)[n+]1Cc1ccc(S(N)(=O)=O)cc1 [Compound 51] | 3.96 | – | 6.49 | – | – | pKi (bCA IV): 5.97
23 | Nc1ccc(S(N)(=O)=O)cc1Cl [Compound 8] | – | – | – | – | 6.58 | –
24 | NS(=O)(=O)c1cccc2ccccc12 [Compound 23] | – | – | – | 6.36 | 7.52 | –
25 | Nc1ccc(S(N)(=O)=O)cc1 [Compound 3, sulfanilamide] | – | – | – | – | – | pKi (bCA IV): 5.52
26 | Cn1nc(S(N)(=O)=O)sc1=N [Compound 14] | – | – | – | – | 7.52 | –
27 | Nc1ccc(S(N)(=O)=O)cc1Br [Compound 9] | – | – | – | 7.18 | – | –
28 | Nc1cc(C(F)(F)F)c(S(N)(=O)=O)cc1S(N)(=O)=O [Compound 11] | – | – | – | 6.81 | – | –
29 | Cc1cc(-c2ccccc2)[n+](-c2ccc(S(=O)(=O)Nc3nnc(S(N)(=O)=O)s3)cc2)c(-c2ccccc2)c1 [Compound 86] | – | – | – | – | – | pKi (hCA IX): 7.46 to 7.92; pKi (hCA IX; [8]): 7.92; pKi (hCA II; [10]): 8.32; pKi (hCA II; read-out: KI against CA II): 8.22 to 8.50

Now from value to compound, other results behind:

Row | pKi (hCA I; [2]) | pKi (hCA IX; [3]) | pKi (hCA II; [5]) | SMILES | pKi (bCA IV; [1]) | pKi (hCA IX; [7]) | also measured
30 | 5.15 | 7.32 | 7.22 | Cc1cc(-c2ccccc2)cc(C)[n+]1-c1ccc(S(N)(=O)=O)cc1 [Compound 28] | – | – | pKi (hCA IX): 7.27 to 8.22; pKi (bCA IV; [4]): 6.68
31 | 3.95 | 7.10 | 6.43 | CC(C)c1cc(-c2ccccc2)cc(-c2ccccc2)[n+]1Cc1ccc(S(N)(=O)=O)cc1 [Compound 49] | – | – | –
32 | 5.70 | 8.10 | 8.00 | Cc1cc(C)[n+](CCc2ccc(S(N)(=O)=O)cc2)c(C)c1C [Compound 70] | – | – | pKi (hCA IX; [6]): 7.27 to 8.22 and > 8.00; pKi (bCA IV; [4]): 7.68
33 | 3.55 | 6.97 | 6.31 | NS(=O)(=O)c1ccc(C[n+]2c(-c3ccccc3)cccc2-c2ccccc2)cc1 [Compound 53] | – | – | pKi (hCA IX): 6.87 to 7.19; pKi (bCA IV; [4]): 5.71
34 | – | 7.85 | – | Cc1cc(C)[n+](CCc2ccc(S(N)(=O)=O)cc2)c(C)c1.[O-][Cl+3]([O-])([O-])[O-] [Compound 55] | – | – | –
35 | 5.22 | 7.05 | 7.68 | CC(C)c1cc(-c2ccccc2)cc(C(C)C)[n+]1CCc1ccc(S(N)(=O)=O)cc1 [Compound 61] | – | – | pKi (hCA IX): 6.87 to 7.19
36 | 4.04 | – | 6.56 | CC(C)(C)c1cc(-c2ccccc2)cc(-c2ccccc2)[n+]1CCc1ccc(S(N)(=O)=O)cc1 [Compound 67] | – | – | pKi (bCA IV; [4]): 6.00
37 | 5.40 | 7.59 | – | Cc1cc(-c2ccccc2)cc(C)[n+]1Cc1ccc(S(N)(=O)=O)cc1 [Compound 42] | – | – | pKi (bCA IV; [4]): 7.15
38 | 4.92 | 7.00 | 7.21 | CC(C)c1cc(-c2ccccc2)cc(C(C)C)[n+]1Cc1ccc(S(N)(=O)=O)cc1 [Compound 45] | – | – | –
39 | 3.54 | – | – | NS(=O)(=O)c1ccc(-[n+]2c(-c3ccccc3)cc(-c3ccccc3)cc2-c2ccccc2)cc1 [Compound 37] | – | – | pKi (bCA IV; [4]): 5.60; pKi (hCA II; read-out: KI hCA II): 6.29
40 | 4.74 | 7.43 | 6.99 | Cc1cc(-c2ccccc2)cc(-c2ccccc2)[n+]1CCc1ccc(S(N)(=O)=O)cc1 [Compound 62] | – | – | pKi (hCA IX): 7.27 to 8.22
41 | 4.40 | 7.15 | 6.66 | CCc1cc(-c2ccccc2)cc(-c2ccccc2)[n+]1CCc1ccc(S(N)(=O)=O)cc1 [Compound 63] | – | – | –
42 | 5.30 | 6.80 | – | CC(C)c1cc(-c2ccccc2)cc(C(C)C)[n+]1-c1ccc(S(N)(=O)=O)cc1 [Compound 31] | – | – | pKi (bCA IV; [4]): 7.05
43 | 3.52 | – | 6.21 | CCCCc1cc(-c2ccccc2)cc(-c2ccccc2)[n+]1-c1ccc(S(N)(=O)=O)cc1 [Compound 36] | – | – | pKi (bCA IV; [4]): 5.67
